Assay results from PMC11513893, “Discovery of Oral Degraders of the ROS1 Fusion Protein with Potent Activity against Secondary Resistance Mutations” (Journal of Medicinal Chemistry, 2024).
“And” between values parts separate entries of the source, which are not always exact repeats. Equal values may be shown once.

Assays:
FES = FES (Homo sapiens, UniProt P07332); test: Kinase assay; assay type: biochemical; settings: average of duplicate measurements
[1] = test system: Ba/F3 CD74-ROS1 non mutant; test: Antiproliferation assay (Alamar Blue, 72 h); assay type: cell-based, mouse; settings: Mus musculus, BaF3, 72 h, Ba/F3 cells, cell growth inhibition
FER = FER (Homo sapiens, UniProt P16591); test: Kinase assay; assay type: biochemical; settings: average of duplicate measurements
PTK2B = PTK2B (Homo sapiens, UniProt Q14289); test: Kinase assay; assay type: biochemical; settings: average of duplicate measurements
PTK2B, sequence (Q14289 whole entry, species assumed): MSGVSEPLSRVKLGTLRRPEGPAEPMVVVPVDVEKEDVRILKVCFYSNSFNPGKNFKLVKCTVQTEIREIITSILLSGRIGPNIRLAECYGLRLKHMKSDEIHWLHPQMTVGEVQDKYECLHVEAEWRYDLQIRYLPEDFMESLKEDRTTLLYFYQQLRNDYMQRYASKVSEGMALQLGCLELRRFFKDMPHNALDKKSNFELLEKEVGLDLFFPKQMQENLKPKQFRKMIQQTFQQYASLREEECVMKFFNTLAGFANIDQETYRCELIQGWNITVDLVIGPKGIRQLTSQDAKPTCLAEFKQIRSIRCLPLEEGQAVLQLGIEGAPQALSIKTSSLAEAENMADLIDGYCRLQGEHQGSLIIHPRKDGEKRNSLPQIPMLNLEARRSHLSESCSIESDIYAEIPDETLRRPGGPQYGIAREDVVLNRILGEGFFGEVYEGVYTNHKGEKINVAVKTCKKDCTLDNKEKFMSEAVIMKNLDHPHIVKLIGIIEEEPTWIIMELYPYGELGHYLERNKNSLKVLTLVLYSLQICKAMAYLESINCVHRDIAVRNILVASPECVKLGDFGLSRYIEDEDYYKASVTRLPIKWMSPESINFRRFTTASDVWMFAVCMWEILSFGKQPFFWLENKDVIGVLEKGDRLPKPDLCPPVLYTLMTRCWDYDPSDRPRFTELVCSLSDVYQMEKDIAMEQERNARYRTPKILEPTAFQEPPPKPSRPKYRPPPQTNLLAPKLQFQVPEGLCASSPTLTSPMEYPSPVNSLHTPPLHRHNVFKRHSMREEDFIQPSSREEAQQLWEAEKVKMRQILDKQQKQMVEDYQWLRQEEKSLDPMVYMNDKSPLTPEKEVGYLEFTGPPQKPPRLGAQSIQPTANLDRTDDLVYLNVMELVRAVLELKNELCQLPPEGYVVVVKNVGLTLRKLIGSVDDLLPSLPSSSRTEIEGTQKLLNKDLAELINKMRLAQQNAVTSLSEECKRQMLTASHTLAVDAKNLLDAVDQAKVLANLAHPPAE

Ba/F3 ROS1 (SLC34A2) = test: Antiproliferation assay; assay type: cell-based; settings: Mus musculus, BaF3; Ba/F3 cell line
Method: (§1) Ba/F3 immortalized murine bone marrow–derived pro-B cells were obtained from Creative Biogene (Shirley, NY) and cultured in RPMI supplemented with 10% FBS and IL3 (0.5 ng/mL). Ba/F3 cells expressing ROS1 variants were maintained in RPMI supplemented with 10% FBS and puromycin (0.7 mg/mL). […] Each compound was dissolved in DMSO and serially diluted in RPMI for cell culture experiments.
(§2) To assess the 72 h effect of drug treatment on cell proliferation, 2000 to 3000 cells were plated in replicates of three in 96-well plates. The plates were placed in an incubator at 37 °C, 5% CO2 for 72 h. Following drug treatments, the cells were incubated with the Alamar Blue Assay reagent (BioRad), 5 μL each well for 4 h at 37 °C and 5% CO2. Luminescence was measured on a multiplate reader and analyzed. […] IC50 values were determined using a nonlinear regression model with a sigmoidal dose response in GraphPad. The data were collected based on triplicate experiments, and presented as mean ± SD.

[2] = test system: Ba/F3 ROS1 (SLC34A2) L2026M; test: Antiproliferation assay; assay type: cell-based; settings: Mus musculus, BaF3; Ba/F3 cell line
Method: as §1, §2

[3] = test system: Ba/F3 ROS1 (SLC34A2) V2098I; test: Antiproliferation assay; assay type: cell-based; settings: Mus musculus, BaF3; Ba/F3 cell line
Method: as §1, §2

BRK (PTK6) = BRK (PTK6) (Homo sapiens, UniProt Q13882); test: Kinase assay; assay type: biochemical; settings: average of duplicate measurements
BRK (PTK6), sequence (Q13882 whole entry, species assumed): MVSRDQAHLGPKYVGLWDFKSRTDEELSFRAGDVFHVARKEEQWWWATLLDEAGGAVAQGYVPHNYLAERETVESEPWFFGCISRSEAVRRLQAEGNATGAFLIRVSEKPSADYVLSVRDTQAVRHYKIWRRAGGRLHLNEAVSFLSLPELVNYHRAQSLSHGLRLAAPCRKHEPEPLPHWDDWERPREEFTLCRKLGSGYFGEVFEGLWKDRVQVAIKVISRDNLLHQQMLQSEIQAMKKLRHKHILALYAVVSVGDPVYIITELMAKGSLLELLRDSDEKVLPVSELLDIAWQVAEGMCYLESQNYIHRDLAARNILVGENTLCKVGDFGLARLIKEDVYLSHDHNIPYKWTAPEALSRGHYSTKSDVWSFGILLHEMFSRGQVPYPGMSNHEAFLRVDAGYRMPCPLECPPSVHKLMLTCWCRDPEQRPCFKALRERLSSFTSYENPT

ROS1 (G2032R) = ROS1 (G2032R) (Homo sapiens, UniProt P08922, G2032R); test: Kinase assay; assay type: biochemical; settings: average of duplicate measurements
ROS1 (G2032R), sequence (P08922 28-2347 G2032R): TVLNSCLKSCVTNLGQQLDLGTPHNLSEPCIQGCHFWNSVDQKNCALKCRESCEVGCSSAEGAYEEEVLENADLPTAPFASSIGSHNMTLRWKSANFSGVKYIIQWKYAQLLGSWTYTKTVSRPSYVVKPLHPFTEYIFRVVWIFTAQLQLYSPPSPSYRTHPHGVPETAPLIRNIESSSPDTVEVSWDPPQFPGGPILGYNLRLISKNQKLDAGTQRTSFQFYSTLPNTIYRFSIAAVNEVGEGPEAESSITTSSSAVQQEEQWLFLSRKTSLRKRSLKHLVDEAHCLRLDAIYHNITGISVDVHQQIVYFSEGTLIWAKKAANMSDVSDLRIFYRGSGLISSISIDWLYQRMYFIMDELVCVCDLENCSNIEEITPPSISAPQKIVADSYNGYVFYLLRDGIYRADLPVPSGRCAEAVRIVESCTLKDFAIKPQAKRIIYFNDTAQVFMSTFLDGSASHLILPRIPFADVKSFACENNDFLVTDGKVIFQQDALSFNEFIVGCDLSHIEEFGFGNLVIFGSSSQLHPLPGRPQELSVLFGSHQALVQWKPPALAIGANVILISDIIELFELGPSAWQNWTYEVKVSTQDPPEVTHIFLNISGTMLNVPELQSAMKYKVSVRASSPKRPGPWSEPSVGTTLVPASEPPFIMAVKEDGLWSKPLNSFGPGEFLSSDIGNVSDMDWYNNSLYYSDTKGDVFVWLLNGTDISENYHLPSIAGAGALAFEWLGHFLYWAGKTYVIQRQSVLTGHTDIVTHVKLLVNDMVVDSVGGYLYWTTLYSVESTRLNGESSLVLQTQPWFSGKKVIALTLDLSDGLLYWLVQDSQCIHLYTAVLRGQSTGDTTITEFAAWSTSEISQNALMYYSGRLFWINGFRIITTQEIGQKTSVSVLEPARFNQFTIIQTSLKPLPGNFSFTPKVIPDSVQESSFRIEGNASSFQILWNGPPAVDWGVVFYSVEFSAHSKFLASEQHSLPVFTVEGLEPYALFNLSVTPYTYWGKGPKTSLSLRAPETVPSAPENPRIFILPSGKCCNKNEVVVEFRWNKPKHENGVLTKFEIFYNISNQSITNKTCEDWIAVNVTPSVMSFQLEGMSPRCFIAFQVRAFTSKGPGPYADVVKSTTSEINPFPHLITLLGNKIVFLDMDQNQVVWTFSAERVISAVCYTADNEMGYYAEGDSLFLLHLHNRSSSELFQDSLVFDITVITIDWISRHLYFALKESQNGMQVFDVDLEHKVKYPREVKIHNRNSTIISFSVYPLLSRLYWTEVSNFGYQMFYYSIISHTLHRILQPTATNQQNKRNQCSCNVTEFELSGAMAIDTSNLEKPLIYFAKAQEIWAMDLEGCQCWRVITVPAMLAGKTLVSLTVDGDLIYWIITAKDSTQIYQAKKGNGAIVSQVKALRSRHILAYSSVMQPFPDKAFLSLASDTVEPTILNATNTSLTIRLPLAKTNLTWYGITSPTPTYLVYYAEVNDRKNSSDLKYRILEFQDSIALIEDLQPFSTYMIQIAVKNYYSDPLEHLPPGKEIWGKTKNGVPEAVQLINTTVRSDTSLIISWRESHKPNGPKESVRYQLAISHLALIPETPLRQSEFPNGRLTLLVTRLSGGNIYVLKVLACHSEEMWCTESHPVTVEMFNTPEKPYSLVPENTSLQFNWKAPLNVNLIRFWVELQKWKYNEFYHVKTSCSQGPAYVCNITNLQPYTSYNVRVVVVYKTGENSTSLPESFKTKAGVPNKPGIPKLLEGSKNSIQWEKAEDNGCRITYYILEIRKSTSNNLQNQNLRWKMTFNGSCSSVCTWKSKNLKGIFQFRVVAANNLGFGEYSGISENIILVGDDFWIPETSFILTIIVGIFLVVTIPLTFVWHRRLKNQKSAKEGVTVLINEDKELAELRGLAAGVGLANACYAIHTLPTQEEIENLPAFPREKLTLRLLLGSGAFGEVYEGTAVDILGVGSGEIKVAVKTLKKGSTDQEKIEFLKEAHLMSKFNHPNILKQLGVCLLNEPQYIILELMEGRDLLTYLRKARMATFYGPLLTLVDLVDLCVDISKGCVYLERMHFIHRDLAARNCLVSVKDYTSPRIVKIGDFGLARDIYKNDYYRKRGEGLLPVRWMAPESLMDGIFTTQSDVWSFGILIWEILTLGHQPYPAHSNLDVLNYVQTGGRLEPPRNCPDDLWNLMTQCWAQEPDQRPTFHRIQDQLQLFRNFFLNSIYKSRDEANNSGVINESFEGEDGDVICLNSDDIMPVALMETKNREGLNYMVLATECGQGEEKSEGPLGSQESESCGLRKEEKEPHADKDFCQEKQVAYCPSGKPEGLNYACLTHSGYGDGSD

ROS1 = ROS1 degradation in Ba/F3 cells (WES immunoblotting); assay type: cell-based; settings: maximal degradation of ROS1 in Ba/F3 cells
Method in brief: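 ROS1 and phospho-ROS1 (Tyr2274/2334) in Ba/F3 lysates quantified by capillary immunoassay (WES) with chemiluminescent detection, duplicate experiments. Levels expressed as AUC of the chemiluminescence peak.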

[4] = test system: Ba/F3 ROS1 (CD74) S1986F-G2032R-L2086F; test: Antiproliferation assay; assay type: cell-based; settings: Mus musculus, BaF3; Ba/F3 cell line
Method: (§3) Ba/F3 immortalized murine bone marrow–derived pro-B cells were obtained from Creative Biogene (Shirley, NY) and cultured in RPMI supplemented with 10% FBS and IL3 (0.5 ng/mL). Ba/F3 cells expressing ROS1 variants were maintained in RPMI supplemented with 10% FBS and puromycin (0.7 mg/mL). Crizotinib, ceritinib, brigatinib, repotrectinib, and lorlatinib were purchased from MedChem Express. Each compound was dissolved in DMSO and serially diluted in RPMI for cell culture experiments.
as §2
(§4) cDNA encoding CD74-ROS1 or mutant CD74–ROS1 was cloned into retroviral expression vectors (pLenti), and viruses were generated in HEK293T cells by transfecting with packaging plasmids. The resulting virus was used to infect Ba/F3 cells. After retroviral infection, Ba/F3 cells were selected by incubation with puromycin (0.7 mg/mL) for 2 weeks. For Ba/F3 cells infected by the CD74–ROS1 variants, IL3 was withdrawn from the culture medium at least 2 weeks before the experiments.

[5] = test system: Ba/F3 ROS1 (CD74) G2032R-L2086F; test: Antiproliferation assay; assay type: cell-based; settings: Mus musculus, BaF3; Ba/F3 cell line
Method: as §3, §2, §4

[6] = test system: Ba/F3 ROS1 (CD74) S1986F-L2086F; test: Antiproliferation assay; assay type: cell-based; settings: Mus musculus, BaF3; Ba/F3 cell line
Method: as §3, §2, §4

Ba/F3 ROS1 (CD74) G2032R = test: Antiproliferation assay; assay type: cell-based; settings: Mus musculus, BaF3; Ba/F3 cell line
Method: as §3, §2, §4

Ba/F3 ROS1 (CD74) L2086F = test: Antiproliferation assay; assay type: cell-based; settings: Mus musculus, BaF3; Ba/F3 cell line
Method: as §3, §2, §4

[7] = test system: Ba/F3 ROS1 (CD74) S1986F-G2032R; test: Antiproliferation assay; assay type: cell-based; settings: Mus musculus, BaF3; Ba/F3 cell line
Method: as §3, §2, §4

Ba/F3 ROS1 D2033N = test: Antiproliferation assay; assay type: cell-based; settings: Mus musculus, BaF3; Ba/F3 cells, cell growth inhibition
Ba/F3 ROS1 L2026M = test: Antiproliferation assay; assay type: cell-based; settings: Mus musculus, BaF3; Ba/F3 cells, cell growth inhibition
Ba/F3 ROS1 G2032R-F2075V = test: Antiproliferation assay; assay type: cell-based; settings: Mus musculus, BaF3; Ba/F3 cells, cell growth inhibition

FES, sequence (P07332 whole entry, species assumed): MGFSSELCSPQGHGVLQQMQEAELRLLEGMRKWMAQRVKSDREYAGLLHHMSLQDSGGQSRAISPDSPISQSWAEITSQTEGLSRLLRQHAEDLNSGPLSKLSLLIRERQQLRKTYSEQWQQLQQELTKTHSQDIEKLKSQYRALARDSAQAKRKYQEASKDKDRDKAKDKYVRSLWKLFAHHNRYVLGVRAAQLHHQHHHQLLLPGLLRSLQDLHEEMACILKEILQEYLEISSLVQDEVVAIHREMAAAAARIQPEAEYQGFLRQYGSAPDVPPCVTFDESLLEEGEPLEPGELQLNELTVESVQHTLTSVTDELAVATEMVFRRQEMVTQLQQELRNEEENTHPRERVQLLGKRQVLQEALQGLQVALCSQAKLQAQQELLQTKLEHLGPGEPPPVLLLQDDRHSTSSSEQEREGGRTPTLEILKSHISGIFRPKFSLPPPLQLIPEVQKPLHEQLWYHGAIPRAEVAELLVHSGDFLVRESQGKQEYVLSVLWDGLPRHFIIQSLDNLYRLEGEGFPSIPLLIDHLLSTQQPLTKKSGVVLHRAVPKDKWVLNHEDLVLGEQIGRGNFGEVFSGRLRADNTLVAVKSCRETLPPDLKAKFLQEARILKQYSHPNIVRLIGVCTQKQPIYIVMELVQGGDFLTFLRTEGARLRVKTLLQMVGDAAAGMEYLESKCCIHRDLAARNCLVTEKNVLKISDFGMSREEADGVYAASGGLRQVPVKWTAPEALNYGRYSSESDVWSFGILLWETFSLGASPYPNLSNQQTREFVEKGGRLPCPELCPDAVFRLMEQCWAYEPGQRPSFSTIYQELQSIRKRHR

IC50 (FES): < 10 nM and 7.5 nM
IC50 [1]: 1.1 ± 0.3 nM
IC50 (FER): 3.1 nM
IC50 (PTK2B): 34 nM
IC50 (Ba/F3 ROS1 (SLC34A2)): 1.1 ± 0.4 nM
IC50 [2]: 2.5 ± 0.6 nM
IC50 [3]: 4.6 ± 2.1 nM
IC50 (BRK (PTK6)): 76 nM
IC50 (ROS1 (G2032R)): 161 nM
IC50 [4]: 37.8 ± 4.4 nM
IC50 [5]: 66.2 ± 18.2 nM
IC50 [6]: 1.9 ± 0.4 nM
IC50 (Ba/F3 ROS1 (CD74) G2032R): 7.7 ± 2 nM
IC50 (Ba/F3 ROS1 (CD74) L2086F): 6.9 ± 1.7 nM
IC50 [7]: 49.5 ± 10.2 nM
IC50 (Ba/F3 ROS1 D2033N): 9.6 nM
IC50 (Ba/F3 ROS1 L2026M): 2.5 nM
IC50 (Ba/F3 ROS1 G2032R-F2075V): 5.6 nM
SMILES: COc1cc(N2CCC(N3CCN(CC4CCN(c5ccc6c(c5)CN(C5CCC(=O)NC5=O)C6=O)CC4)CC3)CC2)ccc1Nc1ncc(Cl)c(Nc2ccccc2P(C)(C)=O)n1 (stereo not shown) [9o, 3-(5-(4-((4-(1-(4-((5-Chloro-4-((2-(dimethylphosphoryl)phenyl)amino)pyrimidin-2-yl)amino)-3-methoxyphenyl)piperidin-4-yl)piperazin-1-yl)methyl)piperidin-1-yl)-1-oxoisoindolin-2-yl)piperidine-2,6-dione]
Dmax (%) (ROS1) (ROS1): 99%
